Data set [1] relates to Caco-2. The data set can be described thus: Flow cytometric annexin V/PI analysis of apoptosis in Caco-2. It counts as cell-based, human. Particulars: Caco-2, at 3 nM, 72 h, mean ± SEM.
Data set [2] concerns MDA-MB 231. The data set can be described thus: Flow cytometric annexin V/PI analysis of apoptosis in MDA-MB 231. The data set is classed as cell-based, human. Particulars: MDA-MB 231, at 3 nM, 72 h, mean ± SEM. A general note: A flow cytometer gives signals particle by particle.
Data set [3] relates to MDA-MB 231. Put plainly: MTT antiproliferative evaluation on MDA-MB 231 cells. The conditions noted are these: Homo sapiens, MDA-MB-231, 72 h, read-out: IC50 MDA-MB 231. It counts as cell-based.
For data set [4], the target named is MMP-10 (Homo sapiens, UniProt P09238). Put plainly: MMP-10 Assay Kit. The conditions noted are these: read-out: IC50 MMP-10.
Data set [5] deals with T1, MMP-7 (Homo sapiens, UniProt P09237).
T1 sequence (P09237 95-267): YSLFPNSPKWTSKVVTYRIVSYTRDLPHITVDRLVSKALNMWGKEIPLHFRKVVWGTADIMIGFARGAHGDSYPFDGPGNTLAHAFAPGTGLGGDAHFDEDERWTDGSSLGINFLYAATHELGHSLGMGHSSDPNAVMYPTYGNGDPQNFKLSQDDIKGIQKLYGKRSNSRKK
Put plainly: MMP-7 Inhibitor Screening Assay Kit. Particulars: read-out: IC50 MMP-7.

Data set [6] concerns the target MMP-9 (Homo sapiens, UniProt P14780). Put plainly: MMP-9 Colorimetric Assay Kit for Drug Discovery. It counts as biochemical. Particulars: read-out: IC50 MMP-9.
Data set [7] addresses T2, MMP-2 (Homo sapiens, UniProt P08253).
T2 sequence (P08253 110-660): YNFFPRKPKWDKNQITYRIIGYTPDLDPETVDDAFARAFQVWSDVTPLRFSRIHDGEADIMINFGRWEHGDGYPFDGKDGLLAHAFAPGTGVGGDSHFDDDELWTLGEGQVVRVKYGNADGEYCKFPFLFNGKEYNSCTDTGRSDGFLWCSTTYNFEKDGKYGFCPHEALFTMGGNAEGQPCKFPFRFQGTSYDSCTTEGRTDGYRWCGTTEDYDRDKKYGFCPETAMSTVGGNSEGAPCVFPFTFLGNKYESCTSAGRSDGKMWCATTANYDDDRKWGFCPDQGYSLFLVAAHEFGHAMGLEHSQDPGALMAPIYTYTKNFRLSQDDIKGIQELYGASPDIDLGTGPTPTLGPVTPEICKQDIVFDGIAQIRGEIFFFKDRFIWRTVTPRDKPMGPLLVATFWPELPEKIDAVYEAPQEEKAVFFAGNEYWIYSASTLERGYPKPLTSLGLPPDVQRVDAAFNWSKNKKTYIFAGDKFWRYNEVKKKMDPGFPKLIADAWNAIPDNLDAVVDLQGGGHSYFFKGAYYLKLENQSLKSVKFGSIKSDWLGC
Put plainly: MMP-2 Inhibitor Screening Assay Kit. It counts as biochemical. Particulars: read-out: IC50 MMP-2.

The target of data set [8] is MMP-13 (Homo sapiens, UniProt P45452). The data set can be described thus: MMP-13 Inhibitor Screening Assay Kit. The conditions noted are these: read-out: IC50 MMP-13.
Data set [9] concerns Caco-2. Put plainly: MTT antiproliferative evaluation on Caco-2 cells. It counts as cell-based. The conditions noted are these: Homo sapiens, Caco-2, 72 h, read-out: IC50 Caco-2.
In data set [10] the test system is tumor growth. Particulars: mouse models; cited from earlier work.

Chain of MMP-9 (P14780 94-707): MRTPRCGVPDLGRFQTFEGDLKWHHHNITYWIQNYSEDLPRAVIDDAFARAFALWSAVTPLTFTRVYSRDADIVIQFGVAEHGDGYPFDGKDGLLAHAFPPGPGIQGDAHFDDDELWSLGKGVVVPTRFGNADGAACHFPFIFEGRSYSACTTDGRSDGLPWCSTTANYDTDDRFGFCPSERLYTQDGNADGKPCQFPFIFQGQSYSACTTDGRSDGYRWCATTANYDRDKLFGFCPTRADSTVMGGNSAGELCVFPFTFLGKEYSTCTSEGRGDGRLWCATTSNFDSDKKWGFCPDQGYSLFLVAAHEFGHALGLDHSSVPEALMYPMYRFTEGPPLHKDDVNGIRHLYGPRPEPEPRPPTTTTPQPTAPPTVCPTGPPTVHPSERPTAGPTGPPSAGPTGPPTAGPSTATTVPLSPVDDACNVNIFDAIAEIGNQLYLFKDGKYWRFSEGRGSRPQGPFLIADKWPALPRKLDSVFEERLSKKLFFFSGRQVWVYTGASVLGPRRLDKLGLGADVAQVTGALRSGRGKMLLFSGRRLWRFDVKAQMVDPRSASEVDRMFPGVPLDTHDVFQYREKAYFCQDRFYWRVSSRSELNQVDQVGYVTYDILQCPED
Chain of MMP-10 (P09238 99-476): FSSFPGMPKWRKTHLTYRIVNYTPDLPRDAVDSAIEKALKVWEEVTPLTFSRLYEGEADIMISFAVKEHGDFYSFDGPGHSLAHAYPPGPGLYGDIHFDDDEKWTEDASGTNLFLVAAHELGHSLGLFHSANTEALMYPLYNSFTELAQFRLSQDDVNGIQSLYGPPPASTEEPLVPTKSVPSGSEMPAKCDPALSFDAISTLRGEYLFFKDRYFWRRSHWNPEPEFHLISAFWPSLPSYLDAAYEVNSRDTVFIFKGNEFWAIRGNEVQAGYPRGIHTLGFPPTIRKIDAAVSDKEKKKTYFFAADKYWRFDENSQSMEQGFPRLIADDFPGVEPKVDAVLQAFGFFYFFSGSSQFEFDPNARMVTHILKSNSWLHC

Usually IC50 stands for the concentration at which inhibition is half-maximal. Regarding `COc1cccc2c1C(=O)c1c(O)c3c(c(O)c1C2=O)C[C@@](O)(C(=O)CO)C[C@@H]3O[C@H]1C[C@H](N)[C@H](O)[C@H](C)O1` [DOX, doxorubicin], the “total % of the apoptotic cell population, Caco-2” value in [1] is on record as 31.7 ± 2.7%; in data set [1] (listed as doxorubicin), under 32%. Besides, the results for the “total % of the apoptotic cell population, MDA-MBA 231” value in data set [2] and in [2] (listed as doxorubicin) were 19.9 ± 1.6% and under 32%, respectively. Moreover, the IC50 in [3] was 10.7 ± 0.3 nM.
For the molecule `COc1ccc(S(=O)(=O)N(CC(=O)NO)CC(C)C)cc1` [NNGH, N-isobutyl-N-(4-methoxyphenylsulfonyl)glycyl hydroxamic acid], the IC50 was 101 nM in [4]; 240 nM in data set [5]; 73 nM in data set [6]; 77 nM in data set [7]; 360 nM in data set [8].
Take `O=C(NNc1nc(O)nc(O)n1)c1ccc(Nc2nc(Nc3ccc(C(=O)NNc4nc(O)nc(O)n4)cc3)nc(Nc3ccc(C(=O)NNc4nc(O)nc(O)n4)cc3)n2)cc1` [compound 12, 4,4′,4′′-((1,3,5-Triazine-2,4,6-triyl)tris(azanediyl))tris(N′-(4,6-dihydroxy-1,3,5-triazin-2-yl)benzohydrazide)]: the results for the IC50 in [9] and in data set [3] were 52.8 ± 3.8 nM and 70.9 ± 3.7 nM, respectively.
The like results for `O=C(NO)c1ccc(Nc2nc(Nc3ccc(C(=O)NO)cc3)nc(Nc3ccc(C(=O)NO)cc3)n2)cc1` [compound 13, 4,4′,4′′-((1,3,5-Triazine-2,4,6-triyl)tris(azanediyl))tris(N-hydroxybenzamide)] were, in that order, 38.4 ± 1.6 nM and 94.4 ± 10.6 nM.

B1: andecaliximab (antibody, chains of the INN, looked up, V domains shown)
VH: QVQLQESGPGLVKPSETLSLTCTVSGFSLLSYGVHWVRQPPGKGLEWLGVIWTGGTTNYNSALMSRFTISKDDSKNTVYLKMNSLKTEDTAIYYCARYYYGMDYWGQGTLVTVSS
VL: DIQMTQSPSSLSASVGDRVTITCKASQDVRNTVAWYQQKPGKAPKLLIYSSSYRNTGVPDRFSGSGSGTDFTLTISSLQAEDVAVYYCQQHYITPYTFGGGTKVEIK
For B1, the “tumor growth and metastases incidence” value in data set [10] was “reduced the tumor growth and metastases incidence”.

(Values after paper PMC9219090 (ACS Omega, 2022).)
